Reference: patent US8309790B2, “Animal models for demyelination disorders” (University of Chicago, priority 2005, dated 2012)
Read-outs that look alike come from different tables or passages of the source.

B1: suppressor of cytokine signaling 1 (protein, UniProt O35716 1-212, looked up)
Suppressor of cytokine …: MVARNQVAADNAISPAAEPRRRSEPSSSSSSSSPAAPVRPRPCPAVPAPAPGDTHFRTFRSHSDYRRITRTSALLDACGFYWGPLSVHGAHERLRAEPVGTFLVRDSRQRNCFFALSVKMASGPTSIRVHFQAGRFHLDGSRETFDCLFELLEHYVAAPRRMLGAPLRQRRVRPLQELCRQRIVAAVGRENLARIPLNPVLRDYLSSFPFQI
modifications: Flag tag

Columns and labels:
[1] = test system: Hippocampal organotypic cultures; experiment: Hippocampal organotypic cultures (HOC), in vitro model of myelination, MBP Western blot; type: cell-based; conditions: for reduction of MBP expression elicited by IFN-γ exposure: SAL at various concentrations combined with 100 U/ml IFN-γ for 7 days
Description: Our hypothesis is that the integrated stress response has the potential to protect oligodendrocytes from the harmful effects of the inflammatory response in patients with multiple sclerosis (MS). […] To test whether agents that prolong eIF2α phosphorylation might provide protection to oligodendrocytes against detrimental inflammatory factors, the effect of Salubrinol (Sal) in the presence of the immune cytokine IFN-γ was tested in an in vitro model of myelination.
HOCs, were prepared and maintained as described previously (Kunkler and Kraig (1997) J Cereb Blood Flow Metab. 17:26-43), and were maintained in vitro for 7 days before use. SAL at various concentrations was combined with 100 U/ml IFN-γ and added to the HOC cultures for 7 days. […] After 7 days of 100 U/ml IFN-γ exposure, the levels of MBP decreased approximately 80% in the HOCs (FIG. 29).

PP1-GADD34 phosphatase = conditions: results in sustained eIF2α phosphorylation, cited from earlier work
[2] = test system: transgenic littermates overexpressing IFN-γ and/or SOCS1; experiment: IFN-γ-overexpressing mice crossed to PLP/SOCS1 mice, clinical and histological evaluation at postnatal day 21; type: in vivo; conditions: for Incidence of tremor: ten mice per group; for oligodendrocyte density: corpus callosum, postnatal day 21
From the text: The transgenic mice MBP/IFN-γ and GFAP/tTA×TRE/IFN-γ (lines 184/110 and 184/67) that overexpress IFN-γ in the CNS have been described elsewhere (Corbin et al., 1996; Gao et al., 2000; Lin et al., 2004, 2005). Briefly, MBP/IFN-γ mice are transgenic animals in which IFN-γ expression is driven by the myelin basic protein (MBP) transcriptional control region (Gao et al., 2000). GFAP/tTA×TRE/IFN-γ are double-transgenic mice obtained by mating single-transgenic GFAP/tTA to single-transgenic TRE/IFN-γ (lines 110 and 67) mice. The two TRE/IFN-γ mouse lines, line 110 and line 67, used in the experiments produce different amounts of IFN-γ when crossed to GFA/tTA mice (184/110 and 184/67) (Lin e al., 2004, 2005). GFAP/tTA×TRE/IFN-γ is a tetracycline-off-inducible system in which the glial fibrilary acidic protein (GFAP) transcriptional control region drives the expression of tTA, which in turn, binds to the TRE (tet responsive element) and initiates the expression of IFN-γ. Administration of doxycycline suppresses tTA DNA binding and IFN-γ expression, and doxycycline removal allows for temporally-controlled induction of IFN-γ expression (Gao et al., 1999).
IFN-γ-overexpressing mice were crossed to the PLP/SOCS1 mice in double-transgenic, (MBP/IFN-γ×PLP/SOCS1) and triple-transgenic (GFAP/tTA×TRE/IFN-γ×PLP/SOCS1) mating systems. MBP/IFN-γ×PLP/SOCS1 (172×PLP/SOCS1) mating was performed according to a standard mating protocol. The GFAP/tTA×TRE/IFN-γ×PLP/SOCS1 matings were performed in a 2-step mating process: GFAP/tTA mice were initially crossed to PLP/SOCS1 mice, and double-positive (184×PLP/SOCS1) offspring were then crossed to the TRE/IFN-γ lines 110 and 67, separately. This second mating step was performed according to the previously described “tet-off” protocol. Doxycycline 0.05 mg/ml (Sigma-Aldich) was added to the water of impregnated female mice until embryonic day 14, after which the animals were switched back to normal water, thereby allowing initiation of IFN-γ transcription, which peaks during the postnatal period (Lin et al., 2005).
The litters of the mating systems (F1 generation) were examined daily and sacrificed at postnatal day 21. Clinical evaluation included behavioral observation and challenged ladder walking to elicit tremor. Histological examination included quantitation of the number and density of oligodendrocytes and examination of the myelination patterns. Brain tissue was simultaneously obtained from each animal at the time of sacrifice to verify and measure the expression of IFN-γ and Flag-SOCS1 (see below). The clinical and histological findings were subsequently stratified according to genotype. All animal procedures were conducted in compliance with the National Institutes of Health Guide for Care and Use of Laboratory Animals and were approved by the Institutional Animal Care and Use Committee at The University of Chicago.
Oligodendrocyte cell density was assessed digitally using Axiovision software, at postnatal day 21, as previously described (Lin et al., 2005). The brains were sectioned sagittally through the corpus callosum dividing the brain in two symmetrical halves. Ten frozen sections from each half were prepared at 7 μm thickness, and numbered in the sequence of their preparation. The brains of three animals per study group were prepared in this fashion. Following the CC1 immunostaining the corresponding area of corpus callosum of each section was digitally selected and the corresponding total area obtained. CC1 cell counting was performed manually within the selected areas of each section, and the number of CC1 positive cells per square area (mm^2) calculated. The results were presented as mean±SD of CC1 (+) cells/mm^2 with n=3 animals per study group. […]

Molecule	reduction of MBP expression elicited by IFN-γ exposure [1]	reduction of MBP expression elicited by IFN-γ exposure ([1]; listed as Sal)	MBP expression ([1]; SAL treatment alone)	PP1-GADD34 phosphatase activity (PP1-GADD34 phosphatase)	PP1-GADD34 phosphatase activity (PP1-GADD34 phosphatase; listed as Salubrinol)	Incidence of tremor ([2]; 172 × PLP/SOCS1 mating system)	Incidence of tremor ([2]; 184/67 × PLP/SOCS1 mating system)	oligodendrocyte density ([2]; 184/67 × PLP/SOCS1 system)	Incidence of tremor ([2]; 184/110 × PLP/SOCS1 mating system)	oligodendrocyte density ([2]; 184/110 × PLP/SOCS1 system)
O=C(/C=C/c1ccccc1)NC(NC(=S)Nc1cccc2cccnc12)C(Cl)(Cl)Cl (stereo not shown) [SAL, salubrinal]	markedly attenuated	attenuating effect	did not affect	specifically inhibits	specifically inhibit	–	–	–	–	–
B1	–	–	–	–	–	0%	0%	142±5 CC1 (+) cells/mm^2	0%	141±6 CC1 (+) cells/mm^2
